# Measured values reported in patent US12297197B2, “Pyrazolopyridine compound as RET inhibitor and application thereof” (GUANGZHOU BAIYUNSHAN PHARMACEUTICAL HOLDINGS CO., LTD. …, priority 2019, dated 2025).
# Structures can show the parent of a compound that is named as a salt.
# Experiments:
# RET kinase = RET kinase (Homo sapiens, UniProt P07949); assay: In-vitro enzyme activity test, RET kinase; format: biochemical; settings: ATP 20 μM; 10 concentrations 3 μM to 0.152 nM
# Experimental: (§1) The enzyme activity was detected by a Z′-LYTE™ kinase test, and inhibitory effects of the compounds onRET and RET (V804M) kinases were evaluated with an ICs value of each compound as an index.
# (§2) The compounds used for RET and RET (V804M) kinase tests were diluted 3-fold, in 10 concentration gradients ranging from 3 μM to 0.152 nM; and the content of DMSO in detection reaction was 1%.
# (§3) Basic reaction buffer, 20 mM 4-(2-hydroxyethyl)piperazine-1-ethanesulfonic acid (Hepes) buffer (pH 7.5), 10 mM MgCl2. 1 mM 1,2-bis[2-[bis(carboxymethyl)amino]ethoxy]ethane (EGTA), 0.02% polyoxyethylene lauryl ether (Brij35), 0.02 mg/mL bovine serum albumin, 0.1 mM of Na3VO4, 2 mM dithiothreitol (DTT) and 1% DMSO.
# (§4) The compounds to be tested were dissolved in a 100% DMSO system to be diluted to 10 mM for further use. The solution was diluted by using Integra Viaflo Assist.
# (§5) Test conditions: concentrations of RET kinase, peptide substrate CHKtide and adenosine triphosphate (ATP) were […], 1000 μM and 20 μM, respectively, and concentrations of RET (V804M) kinase, substrate peptide and ATP were […], 1000 μM and 30 μM, respectively.
# (§6) Reaction process: compound solutions of different concentrations were added to a kinase/peptide solution prepared according to the test conditions, the obtained solution was incubated at room temperature for 20 minutes, and then 33P-ATP of corresponding concentrations were added, and the obtained solution was incubated at room temperature for 120 minutes. The radioactivity was detected by a filter-binding method.
# (§7) The reaction was terminated by adding phosphoric acid (concentration, 0.5%) into a kinase reaction solution, and plate reading was carried out with an Envision instrument.
# (§8) Data were converted into phosphorylation rate and inhibition rate, and the parametric curve was fitted by using GraphPad Software to obtain IC50 data of the compounds.
# RET (V804M) kinase = RET (V804M) kinase (Homo sapiens, UniProt P07949, V804M); assay: In-vitro enzyme activity test, RET (V804M) kinase; format: biochemical; settings: ATP 30 μM; 10 concentrations 3 μM to 0.152 nM
# Experimental: as §1, §2, §3, §4, §5, §6, §7, §8
# RET kinase, sequence (P07949 29-1114): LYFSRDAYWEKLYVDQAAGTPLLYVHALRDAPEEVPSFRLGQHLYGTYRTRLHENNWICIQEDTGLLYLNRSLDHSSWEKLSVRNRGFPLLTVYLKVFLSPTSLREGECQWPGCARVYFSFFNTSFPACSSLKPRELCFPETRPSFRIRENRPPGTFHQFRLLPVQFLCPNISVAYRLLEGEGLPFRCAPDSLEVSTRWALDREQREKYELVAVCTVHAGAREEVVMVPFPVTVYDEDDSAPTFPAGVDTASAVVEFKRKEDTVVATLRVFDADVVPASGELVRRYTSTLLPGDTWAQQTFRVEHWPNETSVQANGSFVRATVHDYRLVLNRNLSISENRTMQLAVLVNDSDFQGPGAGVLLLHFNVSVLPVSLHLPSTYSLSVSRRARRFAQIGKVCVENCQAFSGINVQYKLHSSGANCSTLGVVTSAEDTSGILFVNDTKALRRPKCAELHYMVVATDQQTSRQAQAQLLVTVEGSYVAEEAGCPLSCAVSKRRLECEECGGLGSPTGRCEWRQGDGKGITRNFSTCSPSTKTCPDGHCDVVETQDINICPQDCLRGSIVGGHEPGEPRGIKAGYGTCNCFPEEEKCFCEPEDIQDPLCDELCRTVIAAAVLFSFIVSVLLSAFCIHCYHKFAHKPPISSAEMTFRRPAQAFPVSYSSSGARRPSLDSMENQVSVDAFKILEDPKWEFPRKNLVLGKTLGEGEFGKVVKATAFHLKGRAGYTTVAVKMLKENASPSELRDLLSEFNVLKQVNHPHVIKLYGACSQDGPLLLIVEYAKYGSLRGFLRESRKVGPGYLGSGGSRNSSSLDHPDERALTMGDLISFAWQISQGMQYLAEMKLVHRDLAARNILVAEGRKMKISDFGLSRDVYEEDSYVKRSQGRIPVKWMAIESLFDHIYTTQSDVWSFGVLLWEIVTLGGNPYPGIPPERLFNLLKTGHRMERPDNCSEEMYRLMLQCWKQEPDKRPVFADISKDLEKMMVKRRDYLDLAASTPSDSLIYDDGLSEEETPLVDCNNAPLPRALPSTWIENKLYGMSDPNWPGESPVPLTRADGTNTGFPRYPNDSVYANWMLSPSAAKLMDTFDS
# RET (V804M) kinase, sequence (P07949 29-1114 V804M): as the sequence (P07949 29-1114) above, with V776M counted along it
Structure (SMILES),IC50 (RET kinase) [nM],IC50 (RET (V804M) kinase) [nM]
COc1ccc(CN2C3CC2CN(c2ccc(-c4cc(C5=CCNC(C)(C)C5)cn5ncc(C#N)c45)cn2)C3)cn1 [Trifluoroacetate of compound 48],2.13,
COc1ccc(CN2C3CC2CN(c2ccc(-c4cc(N5CCN(C)C(=O)C5)cn5ncc(C#N)c45)cn2)C3)cn1 [Trifluoroacetate of compound 19],2.35,
C[C@@H](C(=O)N1CCN(c2ccc(-c3cc(N4CCOCC4)cn4ncc(C#N)c34)cn2)CC1)c1ccccc1 [Hydrochloride of compound 4],2.42,22.7
N#Cc1cnn2cc(N3CCOCC3)cc(-c3ccc(N4CC5CC(C4)N5Cc4cnc5[nH]ccc5c4Cl)nc3)c12 [Compound 16],6.08,
N#Cc1cnn2cc(C3CC3)cc(-c3ccc(N4CCN(Cc5c(F)cccc5F)CC4)nc3)c12 [Compound 1],3.66,36.1
COc1ccc(CN2C3CC2CN(c2ccc(-c4cc(N5CCC(N(C)C)C5)cn5ncc(C#N)c45)cn2)C3)cn1 (centres unmarked) [Triftuoroacelate of compound 72],6.6,12
COc1ccc(CN2C3CC2CN(c2ccc(-c4cc(N5CC[C@@H](OC)C5)cn5ncc(C#N)c45)cn2)C3)cn1 [compound 79],1.39,
COc1ccc(CN2C3CC2CN(c2ccc(-c4cc(C5=CCOC(C)(C)C5)cn5ncc(C#N)c45)cn2)C3)cn1 [Compound 51],1.73,
N#Cc1cnn2cc(C3=CCNCC3)cc(-c3ccc(N4CCN(Cc5c(F)cccc5F)CC4)nc3)c12 [Tfifluoroacetate of compound 25],1.62,11
CN1CCC(c2cc(-c3ccc(N4CCN(Cc5c(F)cccc5F)CC4)nc3)c3c(C#N)cnn3c2)CC1 [Hydrochloride of compound 2],95.5,1410
N#Cc1cnn2cc(C3=CCOCC3)cc(-c3ccc(N4CC5CC(C4)N5Cc4cnc5c(c4)OCO5)nc3)c12 [Trifluoroacetate of compound 44],2.34,
N#Cc1cnn2cc(C3=CCOCC3)cc(-c3ccc(N4CC5CC(C4)N5Cc4ccc5[nH]ccc5c4)nc3)c12 [Compound 38],1.21,5.93
COc1ncc(CN2C3CC2CN(c2ccc(-c4cc(N5CCOCC5)cn5ncc(C#N)c45)cn2)C3)cc1F [Trifluoroacetate of compound 15],1.21,
COc1ccc(CN2C3CC2CN(c2cnc(-c4cc(N5CCCC5)cn5ncc(C#N)c45)cn2)C3)cn1 [Triftuoroacetate of compound 64],1.23,2.67
N#Cc1cnn2cc(N3CCCC3)cc(-c3ccc(N4CCN(Cc5c(F)cccc5F)CC4)nc3)c12 [Triftuoroacetate of compound 57],1.98,8.11
COc1ccc(CN2C3CC2CN(c2ccc(-c4cc(N5CCC(C)(O)CC5)cn5ncc(C#N)c45)cn2)C3)cn1 [Trifluoroacetate of compound 21],1.98,

Structure (SMILES),IC50 (RET kinase) [nM],IC50 (RET (V804M) kinase) [nM]
CN1CC=C(c2cc(-c3ccc(N4CCN(Cc5c(F)cccc5F)CC4)nc3)c3c(C#N)cnn3c2)CC1 [Trifluoroacetate of compound 26],3.82,22
COc1cnc(CN2C3CC2CN(c2ccc(-c4cc(C5=CCOCC5)cn5ncc(C#N)c45)cn2)C3)cn1 [Compound 36],1.22,3.79
COc1ccc(CN2CCN(c3ccc(-c4cc(N5CCCC5)cn5ncc(C#N)c45)cn3)CC2)cn1 [Trifluoroacetate of compound 63],1.6,5.68
COc1ccc(CN2C3CC2CN(c2ccc(-c4cc(C5=CCOC5)cn5ncc(C#N)c45)cn2)C3)cn1 [Trifluoroacetate of compound 54],2.42,
COc1ccc(CN2C3CC2CN(c2ccc(-c4cc(N5CCC(C)(O)C5)cn5ncc(C#N)c45)cn2)C3)cn1 (centres unmarked) [Trifluoroacetate of compound 82],2.34,
COc1ccc(CN2C3CC2CN(c2cnc(-c4cc(N5CC[C@H](F)C5)cn5ncc(C#N)c45)cn2)C3)cn1 [Trifluoroacetate of compound 66],1.62,7.53
N#Cc1cnn2cc(N3CCCC3)cc(-c3ccc(N4CCC(C(=O)NC5CC(F)(F)C5)CC4)nc3)c12 [Trifluoroacetate of compound 58],1.8,7.81
N#Cc1cnn2cc(N3CCOCC3)cc(-c3ccc(N4CC5CC(C4)N5Cc4cnc5c(c4)OCO5)nc3)c12 [Trifluoroacetate of compound 13],1.57,3.49
COc1ccc(CN2C3CC2CN(c2ccc(-c4cc(N5CC[C@@H](F)C5)cn5ncc(C#N)c45)cn2)C3)cn1 [Trifluoroacetate of compound 68],1.53,1.47
CCN1CCC(c2cc(-c3ccc(N4CCN(Cc5c(F)cccc5F)CC4)nc3)c3c(C#N)cnn3c2)C1 (centres unmarked) [Trifluoroacetate of compound 7],239,1930
N#Cc1cnn2cc(C3=CCOCC3)cc(-c3cnc(N4CC5CC(C4)N5Cc4ccc5[nH]ccc5c4)cn3)c12 [Compound 45],1.83,7.53
CN1CCC(c2cc(-c3ccc(N4CCN(Cc5c(F)cccc5F)CC4)nc3)c3c(C#N)cnn3c2)C1 (centres unmarked) [Trifluoroacetate of compound 6],34.8,
CCN1CCN(c2cc(-c3ccc(N4CC5CC(C4)N5Cc4ccc(OC)nc4)nc3)c3c(C#N)cnn3c2)CC1 [Trifluoroacetate of compound 17],5.25,
COc1ccc(CN2C3CC2CN(c2ccc(-c4cc(C5=CC(C)(C)OCC5)cn5ncc(C#N)c45)cn2)C3)cn1 [Compound 50],1.87,
COc1ccc(CN2C3CC2CN(c2ccc(-c4cc(N5CCC(OC)C5)cn5ncc(C#N)c45)cn2)C3)cn1 (centres unmarked) [Trifluoroacetate of compound 77],4.39,

# The next compounds have a lower IC50 (RET kinase) than those just listed; values first:
IC50 (RET kinase) [nM],IC50 (RET (V804M) kinase) [nM],Structure (SMILES)
0.72,0.48,N#Cc1cnn2cc(N3CCOCC3)cc(-c3ccc(N4CC5CC(C4)N5Cc4cnc5[nH]ccc5c4)nc3)c12 [Trifluoroacetate of compound 14]
1.1,8.43,CN1CC=C(c2cc(-c3ccc(N4CCN(Cc5c(F)cccc5F)CC4)nc3)c3c(C#N)cnn3c2)C1 [Trifluoroacetate of compound 24]
0.72,,N#Cc1cnn2cc(N3CC[C@@H](F)C3)cc(-c3ccc(N4CC5CC(C4)N5Cc4cnc5[nH]ccc5c4)nc3)c12 [Trifluoroacetate of compound 73]
0.47,2.04,N#Cc1cnn2cc(C3=CCOCC3)cc(-c3ccc(N4CCN(Cc5c(F)cccc5F)CC4)nc3)c12 [Trifluoroacetate of compound 22]
1.15,3.14,COc1ccc(CN2C3CC2CN(c2cnc(-c4cc(C5CC5)cn5ncc(C#N)c45)cn2)C3)cn1 [Trifluoroacetate of compound 8]
0.97,1.8,COc1ccc(CN2C3CC2CN(c2ccc(-c4cc(N5CCOCC5)cn5ncc(C#N)c45)cn2)C3)cn1 [Trifluoroacetate of compound 9]
1.16,,COc1ccc(CN2C3CC2CN(c2ccc(-c4cc(C5=CCN(C)CC5)cn5ncc(C#N)c45)cn2)C3)cn1 [Trifluoroacetate of compound 46]
1.13,,COc1ccc(CN2C3CC2CN(c2ccc(-c4cc(C5=CCC(C)(O)CC5)cn5ncc(C#N)c45)cn2)C3)cn1 (centres unmarked) [Compound 42]
0.96,,N#Cc1cnn2cc(C3=CCOCC3)cc(-c3ccc(N4CC5CC(C4)N5Cc4ccc(C(F)(F)F)nc4)nc3)c12 [Trifluoroacetate of compound 56]
1.1,3.15,COc1ccc(CN2C3CC2CN(c2ccc(-c4cc(C5=CCNCC5)cn5ncc(C#N)c45)cn2)C3)cn1 [Trifluoroacetate of compound 32]
1.04,,COc1ccc(CN2CCN(c3ccc(-c4cc(C5=CCOCC5)cn5ncc(C#N)c45)cn3)CC2)cn1 [Hydrochloride of compound 29]
0.72,,N#Cc1cnn2cc(C3=CCOCC3)cc(-c3ccc(N4CC5CC(C4)N5Cc4ccnc5c4OCO5)nc3)c12 [Triftuoroacetate of compound 43]
0.9,,COc1ccc(CN2C3CC2CN(c2ccc(-c4cc(N5CCN(C(C)=O)CC5)cn5ncc(C#N)c45)cn2)C3)cn1 [Trifluoroacetate of compound 20]
1.09,,COc1ccc(CN2C3CC2CN(c2ccc(-c4cc(N5CC[C@@H](O)C5)cn5ncc(C#N)c45)cn2)C3)cn1 [Compound 70]
0.63,,COc1ccc(CN2C3CC2CN(c2ccc(-c4cc(C5=CCC6(CC5)COC6)cn5ncc(C#N)c45)cn2)C3)cn1 [Trifluoroacetate of compound 47]
0.77,,COc1ccc(CN2C3CC2CN(c2ccc(-c4cc(N5CC[C@H](OC)C5)cn5ncc(C#N)c45)cn2)C3)cn1 [compound 78]
0.59,,COc1ccc(CN2C3CC2CN(c2ccc(-c4cc(N5CC[C@H](O)C5)cn5ncc(C#N)c45)cn2)C3)cn1 [Compound 71]
